Laboratory results taken from article PMC5814735, “Lithium‐Catalyzed Thiol Alkylation with Tertiary and Secondary Alcohols: Synthesis of 3‐Sulfanyl‐Oxetanes as Bioisosteres” (Chemistry (Weinheim an Der Bergstrasse, Germany), 2017).

Key:
[1] = HLM, clearance in liver microsomes; assay type: in vitro ADME, human; conditions: for clearance profile by human liver microsomes, comparison: 20 compared with 22, in words; for microsomal CLint: human, human liver microsomes
Experimental: (§1) In the context of drug discovery, the distribution coefficient of a compound strongly affects how effectively the drug can reach its intended target, as well as efficacy and pharmacokinetic properties. […] To understand the effect of oxetane sulfides on this key parameter, LogD was measured for compounds 21, 2 d, and 17 d. Replacing the thioester functionality with the oxetane sulfide had the positive effect of lowering the LogD by approximately 1 Log unit (Figure 2).
(§2) Figure 2 Comparison of physicochemical parameters. eLogD=distribution coefficient (LogD) measured by HPLC. HLM=Clearance in liver microsomes; RRCK=Cell membrane permeability. TEXT PRINTED IN THE PICTURE: 21: eLogD 4.7 | 2d: eLogD 3.8 | 17d: eLogD 2.1 | 20: HLM: 7.0 μL/min/mg; RRCK: 0.1 10^-6 cm/s | 22: HLM: 7.0 μL/min/mg; RRCK: 1.3 10^-6 cm/s DOUBTS OF THE COPYIST ABOUT THIS PICTURE: 2d, eLogD: 3.8 or 3.6 (small print) / 22, RRCK: 1.3 or 1.5 or 1.8 (small print) / 20 and 22, RRCK: exponent -6 is printed very small and could be -5 or -8

[2] = RRCK cell membrane permeability; assay type: in vitro ADME; conditions: dog, MDCK
Experimental: as §1, §2

RRCK = RRCK cell membrane permeability; assay type: in vitro ADME; conditions: 20 compared with methane analogue 22, in words
Experimental: as §1, §2

[3] = eLogD, distribution coefficient (LogD) measured by HPLC; assay type: physicochemical
Experimental: as §1, §2

In the case of COc1ccc(C2(SCC(N)C(=O)O)COC2)cc1 (stereo not shown) [compound 20], the “clearance profile by human liver microsomes, comparison” value [1] is reported as “determined to be the same”, the microsomal CLint [1] is reported as 7 µL/min/mg and the Papp [2] is reported as 0.1 ×10⁻⁶ cm/s. For the same molecule, the “cell permeability compared with analogue” value (RRCK) was “slightly lower cell permeability than the corresponding methane analogue 22”.
COc1ccc(SC2(c3ccc(OC)cc3)COC2)cc1 [2d] showed a chromatographic logD [3] of 3.8 and a melting point of 113 to 116 °C.
With COc1ccc(CSCC(N)C(=O)O)cc1 (stereo not shown) [compound 22] the “clearance profile by human liver microsomes, comparison” value [1] was “determined to be the same”, the microsomal CLint [1] was 7 µL/min/mg and the Papp [2] was 1.3 ×10⁻⁶ cm/s.
COc1ccc(SC(=O)c2ccc(OC)cc2)cc1 [compound 21] showed a chromatographic logD [3] of 4.7.
COc1ccc(C2(S(=O)(=O)c3ccc(OC)cc3)COC2)cc1 [17d] gave a chromatographic logD [3] of 2.1 and a melting point of 158 to 160 °C.
Molecule c1ccc(SC2(c3ccccc3)CCC2)cc1 [13c] has a melting point of 46 to 48 °C.
